Assay results from patent publication US7754754B2, “Pharmaceutical formulations containing substituted 2 heteroarylaminoacetic acid compounds” (Gruenenthal GmbH, priority 2003, dated 2010).

Legend:
[1] = system: male albino mice (NMRI); experiment: Formaldehyde test (mouse), second (late) phase; assay type: in vivo; details: formaldehyde-induced nociception
Experimental: (b) Formaldehyde Test (Mouse)
The investigations for determining the antinociceptive action of the substituted 2-heteroarylaminoacetic acid compounds of the above general formula I used according to the invention are carried out by the formaldehyde test on male albino mice (NMRI, 25-35 g, Iffa, Credo, Belgium).
In the formaldehyde test, a distinction is drawn between the first (early) phase (0-15 min after formaldehyde injection) and the second (late) phase (15-60 min after formaldehyde injection) (D. Dubuisson et al., Pain, vol. 4, pp. 161-174 (1977)). The early phase, being a direct response to the formaldehyde injection, is considered to be a model of acute pain, while the late phase is considered to be a model of persistent (chronic) pain (T. J. Coderre et al., Pain, vol. 52, pp. 259-285 (1993)). The corresponding literature descriptions are hereby introduced as a reference and are deemed to be part of the disclosure.
The substituted 2-heteroarylaminoacetic acid compounds of the above general formula I used according to the invention are investigated in the second phase of the formaldehyde test in order to obtain information regarding the action of the substances in chronic/inflammatory pain.
A nociceptive reaction is induced in the freely mobile test animals by a single, subcutaneous formaldehyde injection (20 μl, 1% aqueous solution) into the dorsal side of the rear hind paw, the reaction being expressed by distinct licking and biting of the affected paw.
For the investigation period in the second (late) phase of the formaldehyde test, nociceptive behaviour is continuously recorded by observing the animals. […] After injection of the substances which are antinociceptively active in the formaldehyde test, the described behaviours of the animals are reduced or even eliminated. In the same manner as in the substance tests, in which the animals receive an injection of test substance before the formaldehyde, the control animals are injected with vehicle, i.e. solvent (for example 0.9% NaCl solution) before administration of the formaldehyde. The behaviour the animals after administration of the substance (n=10 per substance dose) is compared with a control group (n=10). On the basis of the quantification of the pain behaviour, the action of the substance in the formaldehyde test is determined as a percentage change of the control. ED50 calculations are carried out by regression analysis. The time of administration before the formaldehyde injection was selected as a function of the mode of administration of the compounds used according to the invention (intraperitoneal: 15 min; intravenous: 5 min).

[2] = molecular target: T1, glycineB binding site of the NMDA receptor channel (Rattus norvegicus, UniProt P35439); experiment: Receptor binding study, displacement of (3H)-MDL 105.519 from rat brain membrane homogenates; details: 10 μM of the compound under test, rat cortex and hippocampus membrane homogenate; for inhibition at 10 µM: read-out: % inhibition (percentage fraction of the bound radioactive ligand displaced from its specific binding)
T1 construct: the cortex and hippocampus are dissected out of freshly harvested rat brains and homogenised; from tissue; host or cells: rat (Wistar, male) brain cortex and hippocampus membrane homogenate
Experimental: (a) Receptor Binding Study (glycineB Binding Site of the NMDA Receptor Channel)
The affinity of the compounds of the above general formula I used according to the invention for the glycine binding site of the NMDA receptor channel is determined using brain membrane homogenates (homogenate of cortex and hippocampus area from the brain of male rats, Wistar strain), as for example described in B. M. Baron, B. W. Siegel, B. L. Harrison, R. S. Gross, C. Hawes and P. Towers, Journal of Pharmacology and Experimental Therapeutics, (1996), vol. 279, page 62. The corresponding literature description is hereby introduced as a reference and is deemed to be part of the disclosure.
To this end, the cortex and hippocampus are dissected out of freshly harvested rat brains and homogenised with ice cooling in 5 mmol/l of TRIS-acetate buffer, […] of sucrose, pH 7.4 (10 ml/g fresh weight) using a Potter homogeniser (Braun/Melsungen, 10 piston strokes at 500 rpm) and then centrifuged for 10 minutes at 1,000 g and 4° C. The first supernatant is collected and the sediment again homogenised with ice cooling with 5 mmol/l of tris-acetate buffer, 0.32 mol/l of sucrose, pH 7.4 (5 ml/g of original fresh weight) with the Potter homogeniser (10 piston strokes at 500 rpm) and centrifuged for 10 minutes at 1,000 g and 4° C. The resultant supernatant is combined with the supernatant from the first centrifugation and centrifuged at 17,000 g for 20 minutes at 4° C. The supernatant after this centrifugation is discarded and the membrane sediment resuspended with 5 mmol/l of TRIS-acetate buffer, pH 8.0 (20 ml/g of original fresh weight) and homogenised with 10 piston strokes at 500 rpm.
The membrane homogenate is then incubated for 1 hour at 4° C. and centrifuged for 30 minutes at 50,000 g and 4° C. The supernatant is discarded and the centrifuge tubes containing the membrane sediment are sealed with Parafilm and frozen for 24 hours at −20° C. On the following day, the membrane sediment is thawed and resuspended with ice-cold 5 mmol/I TRIS-acetate buffer, 0.1% saponin (wt./vol.), pH 7.0 (10 ml/g of original fresh weight) and homogenised with 10 piston strokes at 500 rpm and then centrifuged for 20 minutes at 50,000 g and 4° C. The resultant supernatant is discarded and the sediment resuspended in a small volume with 5 mmol/l of TRIS-acetate buffer, pH 7.0 (approx. 2 ml/g of original fresh weight) and again homogenised with 10 piston strokes at 500 rpm. After determination of the protein content, the membrane homogenate is adjusted with 5 mmol/l TRIS-acetate buffer, pH 7.0, to a protein concentration of 10 mg of protein/ml and frozen in aliquots until used for testing.
The receptor binding test is performed by thawing aliquots, diluting them 1:10 with 5 mmol/l TRIS-acetate buffer, pH 7.0, homogenising them with ice-cooling with 10 piston strokes at 500 rpm with the Potter homogeniser (10 piston strokes at 500 rpm) and centrifuging them for 60 minutes at 55,000 g at 4° C. The supernatant is decanted and the membrane sediment adjusted with ice-cold 50 mmol/l TRIS-acetate buffer, pH 7.0, to a protein concentration of 1 mg/ml and again homogenised with 10 piston strokes at 500 rpm and kept in suspension in an ice bath with stirring on a magnetic stirrer. This membrane homogenate is used in the receptor binding test in a quantity of 100 μl per 1 ml batch (0.1 mg of protein/ml in the final batch). In the binding test, the buffer used is 50 mmol/l TRIS-acetate buffer, pH 7.0, and the radioactive ligand […] of (3H)-MDL 105.519 (B. M. Baron et al. 1996). The level of nonspecific binding is determined in the presence of 1 mmol/l of glycine.
In further batches, the compounds used according to the invention are added in concentration series and the displacement of the radioactive ligand from its specific binding at the glycine-binding site of the NMDA receptor channel is determined. […]

| inhibition at 10 µM [2] | Compound | Inhibition (%) at dose ([1]; at 46.4 mg/kg) | Inhibition (%) at dose ([1]; at 10 mg/kg) | % inhibition (percentage fraction of the bound radioactive ligand displaced from its specific binding) [2] |
| --- | --- | --- | --- | --- |
| 85% | O=C(O)C(Nc1cc(Cl)cc(Cl)c1)c1cc2ccccc2s1 (centres unmarked) [Example 2, (Benzo[b]thiophen-2-yl)-(3,5-dichlorophenylamino)acetic acid] | 55% (at 46.4 mg/kg) |  |  |
| 15% | O=C(O)C(Nc1cc(Cl)cc(Cl)c1)c1csc2ccccc12 (centres unmarked) [Example 3, (Benzo[b]thiophen-3-yl)-(3,5-dichlorophenylamino)acetic acid] |  |  |  |
| 97% | O=C([O-])C(Nc1cc(Cl)cc(Cl)c1)c1cc2ccccc2o1.[Na+] (centres unmarked) [Example 6, (Benzofuran-2-yl)-(3,5-dichlorophenylamino)acetic acid, sodium salt] |  | 42% (at 10 mg/kg) |  |
|  | O=C([O-])C(Nc1cc(Cl)cc(Cl)c1)c1cc2ccccc2s1.[Na+] (centres unmarked) [Example 7, (Benzo[b]thiophen-2-yl)-(3,5-dichlorophenylamino)acetic acid, sodium salt] | 11% (at 46.4 mg/kg) |  | 85% |
|  | O=C([O-])C(Nc1cc(Cl)cc(Cl)c1)c1csc2ccccc12.[Na+] (centres unmarked) [Example 8, (Benzo[b]thiophen-3-yl)-(3,5-dichlorophenylamino)acetic acid, sodium salt] |  |  | 24% |
|  | (Benzo[b]furan-2-yl)-(3,5-bis(trifluoromethyl)phenyl)acetic acid, sodium salt [Example 10] | 60% (at 46.4 mg/kg) |  | 29% |
|  | (Benzo[b]thiophen-2-yl)-(3,5-bis(trifluoromethyl)phenyl)acetic acid, sodium salt [Example 9] |  |  | 13% |
